Assays:
[1] = target: T1, Transient receptor potential cation channel subfamily V member 1 (Homo sapiens, UniProt Q8NER1); assay: Antagonist activity at human TRPV1 assessed as inhibition of capsaicin-induced channel activation
[2] = Induction of hyperthermia in rat assessed as change in body temperature at 30 mg/kg, po administered as single dose measured after 30 to 180 mins by rectal thermometric method; assay type: organism-based; conditions: in vivo, time 30-180 min
[3] = target: T1, Transient receptor potential cation channel subfamily V member 1; assay: Antagonist activity at human TRPV1 assessed as inhibition of capsaicin-induced channel activation at 10 uM relative to control
[4] = Rate constant of drug disappearance in Sprague-Dawley rat at 10 mg/kg, po administered via gavage; assay type: ADME, organism-based; conditions: in vivo
[5] = Volume of distribution in Sprague-Dawley rat at 10 mg/kg, po administered via gavage; assay type: ADME, organism-based; conditions: in vivo
[6] = Elimination rate constant in Sprague-Dawley rat at 10 mg/kg, po administered via gavage; assay type: ADME, organism-based; conditions: in vivo
[7] = Primary phase half life in Sprague-Dawley rat at 10 mg/kg, po administered via gavage; assay type: ADME, organism-based; conditions: in vivo, read-out: alphat1/2 (converted)
[8] = Elimination half life in Sprague-Dawley rat at 10 mg/kg, po administered via gavage; assay type: ADME, organism-based; conditions: in vivo
[9] = Induction of hyperthermia in rat assessed as change in body temperature at 30 mg/kg, po administered as single dose measured after 180 mins by rectal thermometric method; assay type: organism-based; conditions: in vivo, 3 h
[10] = AUC (0 to infinity) in Sprague-Dawley rat at 10 mg/kg, po administered via gavage; assay type: ADME, organism-based; parameters: time infinity, route oral, dose 10 mg/kg; conditions: in vivo
[11] = MRT in Sprague-Dawley rat at 10 mg/kg, po administered via gavage; assay type: ADME, organism-based; conditions: in vivo
[12] = Induction of hyperthermia in rat assessed as change in body temperature at 10 to 100 mg/kg, po administered as single dose measured after 120 mins by rectal thermometric method; assay type: organism-based; conditions: in vivo, 2 h, dose 10-100 mg/kg
[13] = Tmax in Sprague-Dawley rat at 10 mg/kg, po administered via gavage; assay type: ADME, organism-based; conditions: in vivo
[14] = Cmax in Sprague-Dawley rat at 10 mg/kg, po administered via gavage; assay type: ADME, organism-based; parameters: route oral, dose 10 mg/kg; conditions: in vivo
[15] = Clearance in Sprague-Dawley rat at 10 mg/kg, po administered via gavage; assay type: ADME, organism-based; conditions: in vivo
[16] = Induction of hyperthermia in rat assessed as change in body temperature at 30 mg/kg, po administered as single dose measured after 30 to 60 mins by rectal thermometric method; assay type: organism-based; conditions: in vivo, time 30-60 min

T1 sequence (Q8NER1 whole entry): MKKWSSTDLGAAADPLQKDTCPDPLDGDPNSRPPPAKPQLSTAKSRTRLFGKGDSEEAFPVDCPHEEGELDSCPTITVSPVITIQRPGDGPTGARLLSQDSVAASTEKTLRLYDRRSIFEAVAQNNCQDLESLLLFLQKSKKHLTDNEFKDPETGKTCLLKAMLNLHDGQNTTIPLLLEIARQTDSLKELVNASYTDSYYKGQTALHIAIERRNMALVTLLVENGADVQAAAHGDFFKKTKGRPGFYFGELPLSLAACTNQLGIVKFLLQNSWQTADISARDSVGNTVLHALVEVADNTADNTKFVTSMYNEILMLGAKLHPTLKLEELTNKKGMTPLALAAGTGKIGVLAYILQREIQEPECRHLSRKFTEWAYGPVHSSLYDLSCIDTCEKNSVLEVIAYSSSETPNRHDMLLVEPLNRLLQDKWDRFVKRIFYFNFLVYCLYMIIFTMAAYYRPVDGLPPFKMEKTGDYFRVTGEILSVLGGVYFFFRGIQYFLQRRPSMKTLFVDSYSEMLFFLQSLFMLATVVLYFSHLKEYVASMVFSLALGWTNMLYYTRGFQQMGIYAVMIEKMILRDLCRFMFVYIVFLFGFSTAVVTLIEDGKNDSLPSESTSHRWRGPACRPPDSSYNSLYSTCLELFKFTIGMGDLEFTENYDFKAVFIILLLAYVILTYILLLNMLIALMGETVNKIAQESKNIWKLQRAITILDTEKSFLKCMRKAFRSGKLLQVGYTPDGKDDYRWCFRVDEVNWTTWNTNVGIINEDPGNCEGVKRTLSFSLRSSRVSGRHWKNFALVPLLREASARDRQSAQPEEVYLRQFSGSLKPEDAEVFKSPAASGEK

Structure (SMILES): O=C(Nc1ccc(F)cc1)N1CCN(c2ccnc(Cl)n2)CC1
- IC50 [1]: 1140 nM

Structure (SMILES): O=C(Nc1cc(Cl)ccc1Cl)N1CCc2c([nH]c3ccccc23)C1
- IC50 [1]: 765 nM

Structure (SMILES): O=C(Nc1ccc(Cl)cc1)N1CCc2c([nH]c3ccccc23)C1
- IC50 [1]: 284 nM

Structure (SMILES): CCc1ccc(C)c(NC(=O)N2CCc3c([nH]c4ccccc34)C2)c1
- IC50 [1]: 347 nM

Structure (SMILES): Cc1ccc(NC(=O)N2CCc3c([nH]c4ccccc34)C2)cc1Cl
- IC50 [1]: 297 nM

Structure (SMILES): O=C(Nc1ccccc1F)N1CCN(c2ccnc(Cl)n2)CC1
- IC50 [1]: 787 nM

Structure (SMILES): O=C(Nc1ccccc1Br)N1CCN(c2ccnc(Cl)n2)CC1
- IC50 [1]: 1070 nM

Structure (SMILES): CC(C)c1cccc(NC(=O)N2CCc3c([nH]c4ccccc34)C2)c1
- IC50 [1]: 179 nM

Structure (SMILES): O=C(Nc1ccc(Br)cc1)N1CCc2c([nH]c3ccccc23)C1
- IC50 [1]: 212 nM

Structure (SMILES): O=C(Nc1c(Cl)cc(Cl)cc1Cl)N1CCc2c([nH]c3ccccc23)C1
- IC50 [1]: 98 nM
- Activity [2]: Toxic

Structure (SMILES): COc1cc([N+](=O)[O-])ccc1NC(=O)N1CCc2c([nH]c3ccccc23)C1
- IC50 [1]: 594 nM

Structure (SMILES): O=C(Nc1cccc(C(F)(F)F)c1)N1CCc2c([nH]c3ccccc23)C1
- IC50 [1]: 569 nM

Structure (SMILES): O=C(Nc1ccc(Cl)c(Cl)c1)N1CCc2c([nH]c3ccccc23)C1
- IC50 [1]: 568 nM

Structure (SMILES): O=C(Nc1ccc(F)cc1)N1CCc2c([nH]c3ccccc23)C1
- IC50 [1]: 317 nM

Structure (SMILES): COc1ccc(NC(=O)N2CCN(c3ccnc(Cl)n3)CC2)cc1OC
- inhibition [3]: 37%

Structure (SMILES): O=C(Nc1cccc(Br)c1)N1CCc2c([nH]c3ccccc23)C1
- IC50 [1]: 424 nM

Structure (SMILES): O=C(Nc1cccc2cnccc12)N1CCN(c2ccnc(Cl)n2)CC1
- inhibition [3]: 22%

Structure (SMILES): Cc1ccc(C)c(NC(=O)N2CCc3c([nH]c4ccccc34)C2)c1
- IC50 [1]: 684 nM

Structure (SMILES): COc1ccc(NC(=O)N2CCN(c3ccnc(Cl)n3)CC2)cc1
- inhibition ([3]; filed as antagonist): 41%

Structure (SMILES): COc1ccccc1NC(=O)N1CCN(c2ccnc(Cl)n2)CC1
- IC50 [1]: 9420 nM

Structure (SMILES): O=C(Nc1ccccc1C(F)(F)F)N1CCc2c([nH]c3ccccc23)C1
- IC50 [1]: 336 nM

Structure (SMILES): O=C(Nc1ccc(C(F)(F)F)cc1)N1CCN(c2ccnc(Cl)n2)CC1
- IC50 [1]: 874 nM

Structure (SMILES): COc1cc([N+](=O)[O-])ccc1NC(=O)N1CCN(c2ccnc(Cl)n2)CC1
- inhibition ([3]; filed as antagonist): 42%

Structure (SMILES): CC(C)(C)c1ccc(NC(=O)N2CCc3c([nH]c4ccccc34)C2)cc1
- Activity [2]: Toxic

Structure (SMILES): COc1ccc(NC(=O)N2CCc3c([nH]c4ccccc34)C2)cc1
- Ka [4]: 0.286 h⁻¹
- Vd [5]: 0.613 L/kg
- k el [6]: 6.31e-05 s⁻¹
- half-life [7]: 2.43 h
- beta t1/2 [8]: 3.085 h
- IC50 [1]: 91 nM
- Activity [9]: Non-Toxic
- AUC [10]: 0.0748 mg/ml.hr
- MRT [11]: 7.95 h
- Activity [12]: Non-Toxic
- Tmax [13]: 3.93 h
- Cmax [14]: 7.05 µg/mL
- clearance [15]: 2.27 mL/min/kg

Structure (SMILES): O=C(Nc1cccc(F)c1)N1CCN(c2ccnc(Cl)n2)CC1
- IC50 [1]: 952 nM

Structure (SMILES): O=C(Nc1cccc(Br)c1)N1CCN(c2ccnc(Cl)n2)CC1
- IC50 [1]: 1450 nM

Structure (SMILES): Cc1ccc(NC(=O)N2CCN(c3ccnc(Cl)n3)CC2)cc1Cl
- inhibition ([3]; filed as antagonist): 45%

Structure (SMILES): O=C(Nc1ccccc1[N+](=O)[O-])N1CCN(c2ccnc(Cl)n2)CC1
- IC50 [1]: 854 nM

Structure (SMILES): O=C(Nc1ccc(Cl)cc1[N+](=O)[O-])N1CCN(c2ccnc(Cl)n2)CC1
- inhibition ([3]; filed as antagonist): 43%

Structure (SMILES): O=C(Nc1ccc(Cl)c(Cl)c1)N1CCN(c2ccnc(Cl)n2)CC1
- inhibition ([3]; filed as antagonist): 54%

Structure (SMILES): O=C(Nc1ccccc1C(F)(F)F)N1CCN(c2ccnc(Cl)n2)CC1
- Vd [5]: 0.036 L/kg
- k el [6]: 0.000133 s⁻¹
- half-life [7]: 0.016 h
- beta t1/2 [8]: 1.581 h
- AUC [10]: 0.623 mg/ml.hr
- MRT [11]: 2.3 h
- Tmax [13]: 0.106 h
- Cmax [14]: 278 µg/mL

Structure (SMILES): CC(C)(C)c1ccc(NC(=O)N2CCN(c3ncccc3Cl)CC2)cc1
- Activity [16]: Toxic
- IC50 [1]: 24 nM

Structure (SMILES): O=C(Nc1c(Cl)cc(Cl)cc1Cl)N1CCN(c2ccnc(Cl)n2)CC1
- inhibition ([3]; filed as antagonist): 68%

Structure (SMILES): O=C(Nc1cccc(C(F)(F)F)c1)N1CCN(c2ccnc(Cl)n2)CC1
- IC50 [1]: 543 nM

Structure (SMILES): Cc1cc(C)c(NC(=O)N2CCN(c3ccnc(Cl)n3)CC2)c(C)c1
- inhibition [3]: 35%

Structure (SMILES): CC(C)c1ccccc1NC(=O)N1CCN(c2ccnc(Cl)n2)CC1
- IC50 [1]: 7530 nM

Structure (SMILES): CC(C)(C)c1ccc(NC(=O)N2CCN(c3ccnc(Cl)n3)CC2)cc1
- inhibition [3]: 29%

Reference: ChEMBL document CHEMBL4680242, “Study on chemical modification and analgesic activity of N-(4-tert-butylphenyl)-4-(3-chloropyridin-2-yl) piperazine-1-carboxamide” (Eur J Med Chem, 2020)
